# According to PMC7413516, “Antidepressant-like activity and safety profile evaluation of 1H-imidazo[2,1-f]purine-2,4(3H,8H)-dione derivatives as 5-HT1A receptor partial agonists” (PLoS ONE, 2020):
# “And” between values parts separate entries of the source, which are not always exact repeats. Identical values can stand only once.
# Key:
# [1] = system: normotensive rats; assay: Blood pressure measurement in normotensive anesthetized rats; format: in vivo, Wistar rats; conditions: for DBP Mean / SBP Mean / DBP (individual animals) / SBP (individual animals): 10 mg/kg i.p.
# Experimental: Male Wistar normotensive rats were anesthetized with thiopental (50–75 mg/kg, i.p.). The right carotid artery was cannulated with a polyethylene tube filled with heparin in saline to facilitate pressure measurement using the Datamax apparatus (Columbus Instruments, Columbus, Ohio, USA). The studied compounds were administered after a 15-min stabilization period.
# [2] = system: adrenergic α1 receptors (α1R); assay: Pressor response to methoxamine in anesthetized normotensive rats (adrenolytic activity); format: in vivo, Wistar rats; conditions: 10 mg/kg, 30 min prior to methoxamine 150 μg/kg
# Experimental: In a separate series of experiments on anesthetized normotensive rats, the effect of studied compounds on the pressor response to methoxamine (Sigma Aldrich) (150 μg/kg) was investigated. Pressor responses to methoxamine injected intravenously were measured before and 30 min after the administration of the tested compound. The amplitudes of the pressure values were measured in 4 independent experiments.
# [3] = target: T1, muscarinic M3 receptor (M3R) (Cavia porcellus, UniProt H0W1Z3); assay: Smooth muscle relaxant assay: carbachol-induced contraction of isolated guinea pig ileum; conditions: isolated guinea pig small intestine, carbachol 100 μM
# T1 construct: from tissue; host or cells: isolated guinea pig ileum
# T1 sequence (H0W1Z3 1-590): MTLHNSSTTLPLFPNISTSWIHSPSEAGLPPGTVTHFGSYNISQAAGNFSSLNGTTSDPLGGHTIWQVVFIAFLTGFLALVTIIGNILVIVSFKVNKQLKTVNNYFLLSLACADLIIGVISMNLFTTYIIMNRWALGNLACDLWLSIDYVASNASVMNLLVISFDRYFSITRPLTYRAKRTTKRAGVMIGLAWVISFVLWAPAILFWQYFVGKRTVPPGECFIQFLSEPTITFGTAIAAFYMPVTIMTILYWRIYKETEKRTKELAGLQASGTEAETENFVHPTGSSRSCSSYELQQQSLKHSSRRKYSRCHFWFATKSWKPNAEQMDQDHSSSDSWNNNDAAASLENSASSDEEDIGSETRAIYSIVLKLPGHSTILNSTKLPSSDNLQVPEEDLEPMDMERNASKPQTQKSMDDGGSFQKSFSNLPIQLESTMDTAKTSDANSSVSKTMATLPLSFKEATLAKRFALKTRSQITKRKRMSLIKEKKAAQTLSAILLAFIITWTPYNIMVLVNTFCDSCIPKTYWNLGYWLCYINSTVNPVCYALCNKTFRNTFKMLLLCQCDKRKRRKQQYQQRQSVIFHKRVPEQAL
# Experimental: (§1) The experiment was carried out according to the method described previously. Male guinea pigs were sacrificed by cervical dislocation. The ileum was rapidly removed, rinsed, and cut into segments of 1.5–2.0 cm length. The tissues were mounted on a jacketed 20 mL organ bath (Tissue Organ Bath System; 750 TOBS, DMT, Denmark) filled with Krebs’s solution (NaCl 120 mM, KCl 5.6 mM, MgCl2 2.2 mM, CaCl2 2.4 mM, NaHCO3 19 mM, glucose 10 mM). The bath was aerated with 95 % O2/5 % CO2 and heated at 37°C. During the 60-min incubation period, the organ was rinsed 4 times with fresh Krebs’s buffer, and the tissues were also pre-stimulated by 60 mM KCl solution. The submaximal contraction induced by histamine (Sigma Aldrich) (2 μM) and carbachol (Sigma Aldrich) (100 μM) was evaluated in the presence and absence of the tested compounds. Amplitudes of contraction values were measured in 4 independent experiments.
# [4] = target: T2, histaminic H1 receptor (H1R) (Cavia porcellus, UniProt P31389); assay: Smooth muscle relaxant assay: histamine-induced contraction of isolated guinea pig ileum; conditions: isolated guinea pig small intestine, histamine 2 μM
# T2 construct: from tissue; host or cells: isolated guinea pig ileum
# T2 sequence (P31389 whole entry): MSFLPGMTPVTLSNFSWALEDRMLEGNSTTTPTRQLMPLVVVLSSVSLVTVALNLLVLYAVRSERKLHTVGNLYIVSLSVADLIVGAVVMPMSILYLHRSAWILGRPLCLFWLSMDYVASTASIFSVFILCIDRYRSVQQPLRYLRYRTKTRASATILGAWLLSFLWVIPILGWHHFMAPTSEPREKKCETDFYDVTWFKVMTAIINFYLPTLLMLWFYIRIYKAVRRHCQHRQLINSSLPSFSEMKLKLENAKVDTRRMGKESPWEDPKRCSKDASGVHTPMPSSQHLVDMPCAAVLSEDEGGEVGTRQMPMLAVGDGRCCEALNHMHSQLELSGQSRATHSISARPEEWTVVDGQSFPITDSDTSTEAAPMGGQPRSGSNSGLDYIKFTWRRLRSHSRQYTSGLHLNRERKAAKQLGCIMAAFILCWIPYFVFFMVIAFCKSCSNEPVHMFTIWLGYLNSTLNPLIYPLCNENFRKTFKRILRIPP
# Experimental: as §1
# [5] = target: serotonergic 5-HT1A receptor (5-HT1AR); design: method as in PMID 27353547; conditions: ref [8]; cited from earlier work
# [6] = system: 5-HT1AR; design: method as in PMID 27353547; conditions: CHO-K1 cells, Ca2+ mobilisation; ref [8]; read-out: Kb, 5-HT1AR antagonist; cited from earlier work
# [7] = system: PDE10A; design: method as in PMID 27353547; conditions: in vitro, bioluminescent detection system; ref [8]; cited from earlier work
# [8] = target: T3, human serotonin 5-HT1AR (Homo sapiens, UniProt P08908); assay: cAMP inhibition (LANCE Ultra cAMP, forskolin-stimulated CHO-K1 cells)
# T3 sequence (P08908 1-422): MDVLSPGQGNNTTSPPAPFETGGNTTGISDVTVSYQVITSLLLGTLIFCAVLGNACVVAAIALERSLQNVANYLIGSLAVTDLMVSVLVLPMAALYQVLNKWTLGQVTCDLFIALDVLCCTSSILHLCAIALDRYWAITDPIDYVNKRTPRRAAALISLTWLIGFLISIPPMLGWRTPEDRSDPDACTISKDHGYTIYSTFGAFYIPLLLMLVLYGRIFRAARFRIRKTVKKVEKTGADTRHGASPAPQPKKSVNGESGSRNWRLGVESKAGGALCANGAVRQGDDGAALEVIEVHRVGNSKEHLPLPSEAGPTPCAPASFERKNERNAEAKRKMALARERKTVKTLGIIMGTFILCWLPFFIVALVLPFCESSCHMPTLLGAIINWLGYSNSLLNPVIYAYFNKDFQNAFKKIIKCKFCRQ
# Experimental: CHO-K1 cell line transfected with 5-HT1A receptor, were commercially obtained from Perkin Elmer (Cat. No. ES-310-C, Lot Number M2W-C1). Cells were cultured according to manufacturer’s instruction.
# The cells were cultured under selective conditions (400 μg/mL Geneticin G418). Thawed cells were resuspended in stimulation buffer (HBSS, 5 mM HEPES, 0.5 IBMX, and 0.1% BSA at pH 7.4) at 2 × 10^5 cells/mL. The same volume (10 μL) of cell suspension was added to tested compounds with 10 μM forskolin. Cell stimulation was performed for 40 min at room temperature. After incubation, cAMP measurements were performed with homogeneous TR-FRET immunoassay using the LANCE Ultra cAMP kit (PerkinElmer, USA) according to the manufacturer’s instruction (PerkinElmer). The TR-FRET signal was read on an EnVision microplate reader (PerkinElmer, USA).
# [9] = time 0 min (baseline), 10 mg/kg
smiles,measurement,setting,value
"Cn1c(=O)c2c(nc3n(CCCCN4CCN(c5ccccc5F)CC4)ccn23)n(C)c1=O [AZ-853, 8-(4-(4-(2-fluorophenyl)piperazin-1-yl)butyl)-1,3-dimethyl-1H-imidazo[2,1-f]purine-2,4(3H,8H)-dione]",effect on systolic blood pressure,[1]; 10 mg/kg,did not significantly affect the systolic blood pressure
same,reduction of diastolic blood pressure in relation to the baseline value,[1]; 10 mg/kg,13–15%
same,DBP Mean,[1]; 5 min,88.3 mmHg
same,SBP Mean,[1]; 5 min,131.2 mmHg
same,DBP (individual animals),"[1]; 5 min, 10 mg/kg",85 mmHg and 88 mmHg and 83 mmHg and 95 mmHg and 91 mmHg
same,SBP (individual animals),"[1]; 5 min, 10 mg/kg",143 mmHg and 116 mmHg and 120 mmHg and 123 mmHg and 163 mmHg and 122 mmHg
same,DBP Mean,[1]; 10 min,84.8 mmHg
same,SBP Mean,[1]; 10 min,130.0 mmHg
same,DBP (individual animals),"[1]; 10 min, 10 mg/kg",82 mmHg and 81 mmHg and 85 mmHg and 91 mmHg and 84 mmHg and 86 mmHg
same,SBP (individual animals),"[1]; 10 min, 10 mg/kg",144 mmHg and 112 mmHg and 127 mmHg and 119 mmHg and 162 mmHg and 116 mmHg
same,DBP Mean,[1]; 15 min,83.2 mmHg
same,SBP Mean,[1]; 15 min,128.5 mmHg
same,DBP (individual animals),"[1]; 15 min, 10 mg/kg",80 mmHg and 81 mmHg and 84 mmHg and 88 mmHg and 82 mmHg
same,SBP (individual animals),"[1]; 15 min, 10 mg/kg",140 mmHg and 113 mmHg and 130 mmHg and 116 mmHg and 160 mmHg and 112 mmHg
same,DBP Mean,[1]; 20 min,83.0 mmHg
same,SBP Mean,[1]; 20 min,125.5 mmHg
same,DBP (individual animals),"[1]; 20 min, 10 mg/kg",75 mmHg and 76 mmHg and 85 mmHg and 88 mmHg and 86 mmHg
same,SBP (individual animals),"[1]; 20 min, 10 mg/kg",132 mmHg and 110 mmHg and 128 mmHg and 113 mmHg and 161 mmHg
same,DBP Mean,[1]; 30 min,83.2 mmHg
same,SBP Mean,[1]; 30 min,122.8 mmHg
same,DBP (individual animals),"[1]; 30 min, 10 mg/kg",80 mmHg and 76 mmHg and 84 mmHg and 87 mmHg and 86 mmHg and 85 mmHg
same,SBP (individual animals),"[1]; 30 min, 10 mg/kg",136 mmHg and 109 mmHg and 126 mmHg and 110 mmHg and 160 mmHg and 112 mmHg
same,DBP Mean,[1]; 40 min,82.5 mmHg
same,SBP Mean,[1]; 40 min,126.2 mmHg
same,DBP (individual animals),"[1]; 40 min, 10 mg/kg",80 mmHg and 76 mmHg and 86 mmHg and 88 mmHg and 83 mmHg
same,SBP (individual animals),"[1]; 40 min, 10 mg/kg",138 mmHg and 110 mmHg and 125 mmHg and 111 mmHg and 159 mmHg
same,DBP Mean,[1]; 50 min,83.2 mmHg
same,SBP Mean,[1]; 50 min,125.7 mmHg
same,DBP (individual animals),"[1]; 50 min, 10 mg/kg",83 mmHg and 82 mmHg and 84 mmHg and 86 mmHg and 97 mmHg and 85 mmHg
same,SBP (individual animals),"[1]; 50 min, 10 mg/kg",139 mmHg and 113 mmHg and 119 mmHg and 167 mmHg and 111 mmHg
same,DBP Mean,[1]; 60 min,86.2 mmHg
same,SBP Mean,[1]; 60 min,127.0 mmHg
same,DBP (individual animals),"[1]; 60 min, 10 mg/kg",84 mmHg and 80 mmHg and 83 mmHg and 86 mmHg and 82 mmHg
same,SBP (individual animals),"[1]; 60 min, 10 mg/kg",136 mmHg and 111 mmHg and 116 mmHg and 110 mmHg and 157 mmHg and 107 mmHg
same,DBP Mean,[1]; 70 min,84.7 mmHg
same,SBP Mean,[1]; 70 min,125.3 mmHg
same,DBP (individual animals),"[1]; 70 min, 10 mg/kg",84 mmHg and 85 mmHg and 89 mmHg and 82 mmHg
same,SBP (individual animals),"[1]; 70 min, 10 mg/kg",138 mmHg and 116 mmHg and 120 mmHg and 111 mmHg and 160 mmHg and 107 mmHg
same,DBP Mean,[1]; 80 min,83.2 mmHg
same,SBP Mean,[1]; 80 min,123.2 mmHg
same,DBP (individual animals),"[1]; 80 min, 10 mg/kg",85 mmHg and 80 mmHg and 82 mmHg and 89 mmHg and 81 mmHg
same,SBP (individual animals),"[1]; 80 min, 10 mg/kg",137 mmHg and 112 mmHg and 115 mmHg and 108 mmHg and 160 mmHg and 107 mmHg
same,DBP Mean,[1]; time 0 min (baseline),97.2 mmHg
same,SBP Mean,[1]; time 0 min (baseline),131.0 mmHg
same,DBP (individual animals),[1]; [9],97 mmHg and 98 mmHg and 91 mmHg and 84 mmHg and 100 mmHg and 113 mmHg
same,SBP (individual animals),[1]; [9],129 mmHg and 140 mmHg and 120 mmHg and 119 mmHg and 122 mmHg and 156 mmHg
same,mean reduction of blood pressure vs. methoxamine alone,[2],95.5 mmHg
same,inhibition at 1 µM,[3],2.5%
same,inhibition at 1 µM,[4],94.8%
same,Ki,[5],0.6 nM
same,Kb,[6],2.7 nM
same,PDE10A inhibitory activity,[7],did not induce PDE4B and PDE10A inhibitory activity
same,EC50,[8],15.8 nM
same,Emax,"[8]; CHO-K1, read-out: Emax (%) ± SEM, agonist mode",43 ± 0.5%
same,lower efficacy than 5-HT,[8]; cAMP inhibition,2.3 fold
same,lower potency than 5-HT,[8]; cAMP inhibition,1.4 fold
